Experimental data as given in ChEMBL document CHEMBL3638391, “Flap modulators” (2015).

Molecular target: T1, Arachidonate 5-lipoxygenase-activating protein (Homo sapiens, UniProt P20292)
T1 sequence (P20292 whole entry): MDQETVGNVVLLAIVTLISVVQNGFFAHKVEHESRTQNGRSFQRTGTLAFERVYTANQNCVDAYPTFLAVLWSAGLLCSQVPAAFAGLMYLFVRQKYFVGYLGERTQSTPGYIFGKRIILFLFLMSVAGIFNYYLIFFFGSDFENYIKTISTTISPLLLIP
Assay: Homogeneous Time Resolved Fluorescence Assay: The assay below is used to test the modulatory activity of compounds against FLAP. Human and mouse FLAP-encoding DNA was amplified by polymerase chain reaction and cloned into pFastBacl (Invitrogen) with a NH2-terminal 6-His tag for expression in Spodoptera frugiperda (Sf-9) cells. FLAP-containing membranes were prepared as was a FITC-labeled FLAP …
Description: Homogeneous Time Resolved Fluorescence Assay: The assay below is used to test the modulatory activity of compounds against FLAP. Human and mouse FLAP-encoding DNA was amplified by polymerase chain reaction and cloned into pFastBacl (Invitrogen) with a NH2-terminal 6-His tag for expression in Spodoptera frugiperda (Sf-9) cells. FLAP-containing membranes were prepared as was a FITC-labeled FLAP modulator [5-[({[2-(2-{3-[3-(tert-Butylsulfanyl)-1-(4-chlorobenzyl)-5-(quinolin-2-ylmethoxy)-1H-indol-2-yl]-2,2-dimethylpropanoyl}hydrazino)-2-oxoethyl]sulfanyl}acetyl)amino]-2-(6-hydroxy-3-oxo-3H-xanthen-9-yl)benzoic acid]. The FLAP binding assay is performed in HTRF format (homogeneous time resolved fluorescence).

## C[C@@H]([C@@H](O)c1ccccc1)N(C)S(=O)(=O)c1ccccc1-c1ccc(-c2ccc(N)nc2)c(F)c1
  Ki: 3.2 nM
